Consider 5 molecules from patent EP2002838A1, “Use of aryl and hetaryl amide derivatives as modulators of an EP2 receptor” (Bayer Schering Pharma AG, priority 2007, dated 2008).

One test deals with Kumulus-Eizell Komplexe. In words: Cumulus expansion test in vitro. It counts as cell-based, Mäuse. The conditions noted are these: competition with PGE2. An excerpt: In immaturen weiblichen Mäusen (Stamm : CD1 (ICR) von Charles River) wird in einem Alter von 14-18 Tagen die Follikulogenese durch eine einmalige Gabe (intraperitoneal) von 10 1.E. PMSG (Pregnant Mare Serum Gonadotropine; Sigma G-4877, Lot 68H0909) induziert. 47 - 50 Stunden nach der Injektion werden die Ovarien entnommen und die Kumulus-Eizell Komplexe entnommen. Der Kumulus Komplex ist in diesem Stadium noch nicht expandiert. Die Kumulus-Eizell Komplexe werden nun für 20 - 24 Stunden mit Prostaglandin E2 (PGE2) (0,3 µM), Vehikel Kontrolle (Ethanol) oder Testsubstanzen inkubiert. Medium: alpha- MEM Medium mit 0,1 mM IBMX, Pyruvate (0,23 mM) Glutamine (2 mM), Pen/Strep 100 IU/ml Pen. und 100 µg/ml Strep.) und HSA (8 mg/ml)). Danach wird die Kumulus Expansion durch die Einteilung in vier Stadien (nach Vanderhyden et al. Dev Biol. 1990 Aug;140(2):307-317) festgestellt. Tabelle 1: Beispiel für die biologische Wirksamkeit der erfindungsgemäßen Verbindungen (gemessen mittels cAMP Antagonismustest): […]

Test [1] has as its target T1, EP2-Subtyp des humanen PGE2-Rezeptors (Homo sapiens, UniProt P43116).
T1 construct: host or cells: cells in a culture plate
In words: cAMP antagonism test (cellular, HTRF cAMP detection, PGE2 stimulation). Type of test: cell-based. Conditions: cAMP Antagonismustest; in presence of agonist PGE2; read-out: Antagonismus [IC50. The source says:
Die Bindung von PGE2 an den EP2-Subtyp des humanen PGE2-Rezeptors induziert die Aktivierung membranständiger Adenylatzyklasen und führt zur Bildung von cAMP. In Gegenwart des Phosphodiesteraseinhibitors IBMX wird das durch diese Stimulation akkumulierte und mittels Zell-Lyse freigesetzte cAMP in einem kompetitiven Nachweisverfahren eingesetzt. In diesem Test konkurriert das cAMP im Lysat mit cAMP-XL665 um die Bindung eines Eu-Kryptat markierten Anti-cAMP Antikörpers. Dabei entsteht in Abwesenheit von zellulärem cAMP ein maximales Signal, welches auf der Kopplung dieses Antikörpers an das cAMP-XL665 Molekül beruht. Dadurch entsteht nach Anregung bei 337 nm ein auf FRET (fluorescence resonance energy transfer) basierendes, langanhaltendes Emissionssignal bei 665 nm (und bei […]). Beide Signale werden in einem geeigneten Messgerät zeitlich versetzt, d.h. nach Abklingen der Hintergrundsfluoreszenz gemessen. Jegliche Erhöhung des durch Prostglandin-E2-Gabe bedingten niedrigen FRET-Signals (gemessen als Well-Ratio-Veränderung = Emission665nm/Emission620nm * 10000) zeigt die Wirkung von Antagonisten.
Die in einer Testplatte und 30 % DMSO vorgelegten Substanzlösungen (0.75 µl) werden in 16 µl einer KRSB+IBMX-Stimulationslösung gelöst (1 X Krebs-Ringer Bicarbonate Buffer; Sigma-Aldrich # K-4002; inklusive 750 µM 3-Isobutyl-1-methylxanthine Sigma-Aldrich # I-7018), anschließend werden 15 µl davon in eine medienfreie Zellkulturplatte überführt, die kurz zuvor mit KRSB gewaschen worden war.
Nach einer 30-minütigen Vorinkubation bei Raumtemperatur (RT) werden 5 µl einer 4xPGE2 Lösung (11 nM) zugegeben und in Gegenwart des Agonisten für weitere 60 min bei RT inkubiert (Volumen: - 20 µl), bevor die Reaktion anschließend durch Zugabe von 5 µl Lysispuffer gestoppt und für weitere 20 min bei RT inkubiert wird (Volumen: - 25 µl). Das Zell-Lysat wird anschließend in eine Messplatte überführt und entsprechend den Herstellerangaben (cyclic AMP kit Cisbio International # 62AMPPEC) gemessen.
For orientation: Time-resolved FRET reads energy transfer from a long-lived donor to a nearby acceptor.

Test [2] addresses T1, EP2-Subtyp des humanen PGE2-Rezeptors. In words: cAMP agonism test (cellular, HTRF cAMP detection, without PGE2). Type of test: cell-based.

The term IC50 denotes the midpoint of a concentration-inhibition curve.

T1 sequence (P43116 whole entry): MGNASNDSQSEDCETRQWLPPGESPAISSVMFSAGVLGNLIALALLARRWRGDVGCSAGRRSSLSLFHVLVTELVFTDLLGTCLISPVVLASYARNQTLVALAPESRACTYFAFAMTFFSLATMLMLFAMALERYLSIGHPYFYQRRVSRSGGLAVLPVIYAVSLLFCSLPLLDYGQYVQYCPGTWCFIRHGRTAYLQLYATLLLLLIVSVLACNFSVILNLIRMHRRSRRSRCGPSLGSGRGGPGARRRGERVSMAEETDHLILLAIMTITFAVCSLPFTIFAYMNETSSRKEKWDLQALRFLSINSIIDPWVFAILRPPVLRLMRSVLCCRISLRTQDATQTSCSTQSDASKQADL

Regarding `CC(C)Oc1ccc2c(=O)c3cc(C(=O)O)ccc3oc2c1` [AH 6809, reference compound], the “Unterdrückung der Kumulus Expansion” value in the test on Kumulus-Eizell Komplexe (concentration 100 - 200 µM) is “ca. 30%”.
Take `Cc1[nH]c2c(F)ccc(C)c2c1CCNC(=O)c1ccc(-n2cccc2)cc1` [Beispiel 13, N-[2-(7-Fluor-2,4-dimethyl-1H-indol-3-yl)-ethyl]-4-pyrrol-1-yl-benzamid]: in test [1], the IC50 came out at 960 nM.
Turning to `Cc1[nH]c2c(F)ccc(C)c2c1CCNC(=O)c1cccc(-c2cc[nH]n2)c1` [Beispiel 15, N-[2-(7-Fluor-2,4-dimethyl-1H-indol-3-yl)-ethyl]-3-(1 H-pyrazol-3-yl)-benzamid], the half-maximal inhibitory concentration (IC50) in test [1] came to 1000 nM. The “Inhibition im zellulären Agonismustest” value in test [2] is recorded as “keine Inhibition”.
On to `Cc1[nH]c2c(F)ccc(C)c2c1CCNC(=O)c1cccc(-c2cccnc2)c1` [Beispiel 20, N-[2-(7-Fluor-2,4-dimethyl-1H-indol-3-yl)-ethyl]-3-pyridin-3-yl-benzamid], for which, in test [1], the half-maximal inhibitory concentration (IC50) came to 1900 nM.
With `Cc1[nH]c2c(F)ccc(C)c2c1CCNC(=O)c1ccc(-c2csnn2)cc1` [Beispiel 21, N-[2-(7-Fluor-2,4-dimethyl-1H-indol-3-yl)-ethyl]-4-[1,2,3]thiadiazol-4-yl-benzamid], in the test with Kumulus-Eizell Komplexe (concentration 10µM), the “Unterdrückung der Kumulus Expansion” value was 50%.
